The record followed here is ChEMBL document CHEMBL1150827, “Pseudodestruxins A and B: new cyclic depsipeptides from the coprophilous fungus Nigrosabulum globosum” (2001).

Molecules are shown by their SMILES. Activity calls are given as the source filed them. The calls are words filed in the database; no cut-off is given here. Non-standard residues stand in square brackets, D forms with d. Residues, ends and D or L forms follow the SMILES beside them. NMeI = CC[C@H](C)[C@H](NC)C(=O)O; Hica(2S) = CC(C)C[C@H](O)C(=O)O; NMeL = CN[C@@H](CC(C)C)C(=O)O; NMeV = CN[C@H](C(=O)O)C(C)C; βAla = NCCC(=O)O

For assay [1], the system named is Ascobolus. The assay can be described thus: Antifungal activity against Ascobolus furfuraceus NRRL 6460 assessed as inhibition of radial growth at 200 ug/disk by standard disk assay. The class given is functional.
Assay [2] relates to Sordaria fimicola. The assay can be described thus: Antifungal activity against Sordaria fimicola NRRL 6459 assessed as inhibition of radial growth at 200 ug/disk by standard disk assay. The class given is functional.
Assay [3] concerns Candida albicans. The assay can be described thus: Antifungal activity against Candida albicans ATCC 90029 at 200 ug/disk by standard disk assay. The class given is functional. The note with it: read-out: IZ.
Assay [4] has as its system Staphylococcus aureus. The assay can be described thus: Antibacterial activity against Staphylococcus aureus ATCC 29213 at 200 ug/disk by standard disk assay. The assay is classed as functional. The note with it: read-out: IZ.
In assay [5] the test system is Bacillus subtilis. The assay can be described thus: Antibacterial activity against Bacillus subtilis ATCC 6051 at 200 ug/disk by standard disk assay. The note with it: read-out: IZ. The assay is classed as functional.
Assay [6] has as its system Sordaria fimicola. The assay can be described thus: Antifungal activity against Sordaria fimicola NRRL 6459 at 200 ug/disk by standard disk assay. The assay is classed as functional, organism-based.
Assay [7] concerns Helicoverpa zea. The assay can be described thus: Antiinsectan activity against Helicoverpa zea larvae at 100 ppm dietary level by dietary assay. The class given is functional, organism-based.
The test system of assay [8] is Ascobolus. As to the kind of experiment: Antifungal activity against Ascobolus furfuraceus NRRL 6460 at 200 ug/disk by standard disk assay. The class given is functional, organism-based.

In general, inhibition refers to how much of the control response was suppressed. In the case of `CC(/C=C/[C@@]1(C)[C@H](C)CCC(=O)[C@@H]1C)=C\Cc1c(O)c(Cl)c(C)c(C=O)c1O` [ASCOCHLORIN], the inhibition at 200 µg/disc in assay [1] stood at 33%; in assay [2], 62%. Moreover, the zone of inhibition at 200 µg/disc amounted to 24 mm in assay [3], 11 mm in assay [4] and 12 mm in assay [5].

Regarding `CC[C@H](C)[C@H]1C(=O)N(C)[C@@H](CC(C)C)C(=O)NCCC(=O)O[C@@H](CC(C)C)C(=O)N2CCC[C@H]2C(=O)N[C@@H](Cc2ccccc2)C(=O)N1C` [PSEUDODESTRUXIN A] (cyclo(F[NMeI][NMeL][βAla][Hica(2S)]P)), the “inhibition zone (IZ)” value in assay [6] and in assay [8] was “inactive” throughout. Also, the zone of inhibition at 200 µg/disc in assay [5] worked out at 8 mm. Further, in assay [7], the result was inactive.

For the compound `CC(C)C[C@@H]1OC(=O)CCNC(=O)[C@H](CC(C)C)N(C)C(=O)[C@H](C(C)C)N(C)C(=O)[C@H](Cc2ccccc2)NC(=O)[C@@H]2CCCN2C1=O` [PSEUDODESTRUXIN B] (cyclo(F[NMeV][NMeL][βAla][Hica(2S)]P)), the “inhibition zone (IZ)” value in assay [6] and in assay [8] was “inactive” throughout. Besides, the zone of inhibition at 200 µg/disc in assay [5] came out at 8 mm.
